From article PMC8092209, “Structural Basis of Ligand Selectivity by a Bacterial Adhesin Lectin Involved in Multispecies Biofilm Formation” (mBio, 2021)
Where “and” joins values, the source holds several entries; their conditions need not be identical. Equal entries are not always repeated.

How the values were obtained:
MpPA14 [1] = target: T1, MpPA14 (Marinomonas primoryensis, UniProt A1YIY3); experiment: Dextran-based comparative competition assay (MpPA14); format: binding
Description: To gain insight into the binding specificity of MpPA14, we investigated the relative affinity of various monosaccharides for the lectin by a comparative competition assay ([12]). MpPA14 bound to Superdex resin was competitively released into solution by the progressive addition of free sugars. The released protein concentrations measured by absorbance at 280 nm were plotted as a function of free sugar concentration to produce semiquantitative binding curves (Fig. 1A and B). The apparent dissociation constant (Kdapp) calculated from these binding curves was used as a relative measure of affinity for each assayed sugar (Table 1). […] D-Ribose bound […] more strongly than its derivative 2-deoxy-D-ribose (Kdapp of 6.8 mM as opposed to 18 mM; Fig. 1B and Table 1).
(§1) The dextran resin competition assay was performed as previously described for MhPA14 ([12]). Briefly, Superdex 200 (S200) resin was washed twice with 50 mM Tris-HCl (pH 9), 150 mM NaCl, and 5 mM CaCl2. One ml of 1 mg/ml MpPA14 with green fluorescent protein (GFP) fused to its N terminus (GFP-MpPA14) or VcPA14 labeled with FITC was suspended with 300 μl of equilibrated Superdex 200 (S200) resin. Following an incubation period with gentle mixing, the S200 resin bound with GFP-MpPA14 was pelleted by centrifugation. The pellet was washed twice with 50 mM Tris-HCl (pH 9), 150 mM NaCl, and 5 mM CaCl2, and the A280 of the supernatant from the second wash was used as the baseline reading. Next, after resuspension in the same buffer, aliquots of 1.67 μmol saccharide were sequentially added to the solution six or seven times, with the A280 of the supernatant being measured after each addition to quantify the release of lectin. The final addition of saccharide was […]. Data from the dextran affinity assay were plotted using GraphPad Prism after subtracting the background. Next, the data were fitted to a nonlinear regression of one-site-specific binding, which follows the model y/Bmax = x/(Kd + x), with Bmax as the maximum specific binding and Kd as the equilibrium binding constant.

[2] = system: FITC-labeled MpPA14 binding to the diatom Chaetoceros neogracile; experiment: Diatom binding experiment with FITC-MpPA14; format: cell-based
Description: C. neogracile is a psychrophilic marine diatom found in Antarctic waters ([50]). […] Each diatom cell has 1 to 4 projections protruding from the corners. Given its photosynthetic capability, C. neogracile contains chlorophyll that is intrinsically fluorescent. […] We reason that glycans coating the diatom cell membrane present numerous end group binding sites in close proximity that can serve as a “molecular Velcro” for MpPA14 binding ([30]).
The Antarctic diatom, Chaetoceros neogracile, was cultured as previously described ([21], [50]). FITC-labeled MpPA14 or VcPA14 (FITC-MpPA14 or FITC-VcPA14, 0.2 mg/ml) in the presence or absence of sugars was incubated with diatoms in buffer (50 mM Tris-HCl [pH 9], 300 mM NaCl, and 5 mM CaCl2) with gentle mixing for 2 h. Next, diatoms were pelleted by centrifugation for 3 min at 7,000 rpm, and the resulting supernatant was discarded. This procedure was repeated three times to wash away unbound FITC-MpPA14 before the diatom pellet was finally resuspended in 20 μl buffer, which was then used to make slides for fluorescence microscopy. In a separate experiment to test if fucose could compete off the MpPA14 that was already bound to diatoms, FITC-MpPA14 was incubated with diatom for 1.5 h before fucose was added. The rest of the experiment followed the same procedure as described above.
(§2) Images were obtained using an Olympus IX83 inverted fluorescence microscope equipped with an Andor Zyla 4.2 Plus camera. Quantification of the fluorescence intensity was done using Fiji ImageJ. The corrected total cell fluorescence (CTCF) was calculated using the following formula: CTCF = integrated density − (area of selected cell × mean fluorescence of the background) ([60]). Quantification of 30 individual diatom cells was done for each treatment. Graphs were made using GraphPad Prism.

VcPA14 = experiment: Dextran-based comparative competition assay (VcPA14); format: binding, Vibrio cholerae; conditions: FITC-VcPA14 on Superdex 200 resin
Protocol: (§3) As proof of concept for the antiadhesion strategy that targets microbial pathogens, we studied the VcPA14 lectin domain from a large 6,938-amino-acid RTX adhesin (GenBank accession number WP_154597608) of the cholera-causing bacterium, V. cholerae. As discussed, VcPA14 has a similar ligand-binding site as that of MpPA14 (Fig. S1), with key sugar-binding residues conserved (Fig. S1G).
as §1, with “Data from the dextran affinity assay were plotted using GraphPad Prism after subtracting the background. Next, the data were fitted to a nonlinear regression of one-site-specific binding, which follows the model y/Bmax = x/(Kd + x), with Bmax as the maximum specific binding and Kd as the equilibrium binding constant.” left out

MpPA14 [3] = target: T1, MpPA14; experiment: Isothermal titration calorimetry; format: binding; conditions: 30°C; for ΔH (enthalpy) / ΔS (entropy) / binding stoichiometry (N value): ITC; for binding stoichiometry (N value): one-binding-site model; for Kd: Kd (dissociation constant, ITC), free sugar in solution
Description: The ITC measurements produced rectangular hyperbolic curves for all three simple saccharides, and fitted well to a one-binding-site model with calculated binding stoichiometry (N) values being close to 1 ([12], [21]). […] However, this is to be expected, because the dextran beads used in the competition assay have multiple binding sites nearby that attract the lectin, whereas the calorimetry was done with free sugars in solution. […] In general, the affinity of lectins for monosaccharides (Kd values) lies within the high micromolar to millimolar range ([8], [30], [31]). […] Furthermore, negative enthalpy (ΔH) and entropy (ΔS) contributions were calculated for all three carbohydrates when they bound to MpPA14, which indicated the binding was driven primarily by polar interaction such as the formation of hydrogen and ionic bonds rather than by hydrophobic interactions. This was consistent with the observation that the Ca^2+-dependent ligand-binding site of MpPA14 consisted of mainly polar and charged amino acids without any residues with large hydrophobic side chains. We therefore acquired detailed structural information to study MpPA14 ligand recognition.
Isothermal titration calorimetry (ITC) measurements were performed at 30°C with a MicroCal VP-ITC instrument (Malvern). […] Sugars were automatically added by a rotating syringe (400 rpm) at 5-min intervals into the MpPA14 solution for a total of 50 injections. The data were analyzed with Origin software version 5.0 (MicroCal).

[4] = system: FITC-labeled VcPA14 binding to C. neogracile; experiment: Diatom binding experiment with FITC-VcPA14; format: cell-based, Chaetoceros neogracile; conditions: 0.5 mM sugar
Protocol: as §3
The Antarctic diatom, Chaetoceros neogracile, was cultured as previously described ([21], [50]). FITC-labeled MpPA14 or VcPA14 (FITC-MpPA14 or FITC-VcPA14, 0.2 mg/ml) in the presence or absence of sugars was incubated with diatoms in buffer (50 mM Tris-HCl [pH 9], 300 mM NaCl, and 5 mM CaCl2) with gentle mixing for 2 h. […] This procedure was repeated three times to wash away unbound FITC-MpPA14 before the diatom pellet was finally resuspended in 20 μl buffer, which was then used to make slides for fluorescence microscopy. […]
as §2, with “Graphs were made using GraphPad Prism.” left out

T1 sequence (A1YIY3 entry or part of it): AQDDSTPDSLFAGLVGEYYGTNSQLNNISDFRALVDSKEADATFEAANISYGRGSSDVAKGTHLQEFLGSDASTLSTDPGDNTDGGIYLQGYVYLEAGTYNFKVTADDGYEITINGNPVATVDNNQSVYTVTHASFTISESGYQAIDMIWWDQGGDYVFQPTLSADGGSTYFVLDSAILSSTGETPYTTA

Question: For `CC(=O)N[C@@H]1[C@@H](O)[C@@H](O)[C@@H](CO)O[C@@H]1O` [N-acetyl-galactosamine], which “Kdapp (apparent dissociation constant)” value (MpPA14 [1]; GFP-MpPA14 bound to Superdex 200 resin released by free sugar, A280, pH 9, 5 mM CaCl2, – = no detectable binding (footnote a)) is on record?
Answer: no measurable interaction

Question: And the Kd (MpPA14 [1]; GFP-MpPA14 bound to Superdex 200 resin released by free sugar, A280, pH 9, 5 mM CaCl2, – = no detectable binding (footnote a), read-out: Kdapp (apparent dissociation constant))?
Answer: > 18000 µM

Question: And the “prevention of lectin binding to the diatom (in words)” value ([2]; 50 mM sugar, 0.2 mg/ml FITC-MpPA14)?
Answer: unable to prevent the lectin from binding the diatom

Question: And the “relative binding to VcPA14 (in words)” value (VcPA14)?
Answer: cannot bind

Question: `CC(=O)N[C@@H]1[C@@H](O)[C@H](O)[C@@H](CO)O[C@H]1O` [N-acetyl-glucosamine, N-acetylglucosamine] was tested. Which Kd (MpPA14 [1]) did it give?
Answer: 1070 µM

Question: And the “ΔH (enthalpy)” value (MpPA14 [3])?
Answer: -15,810 ± 226.1 cal/mol

Question: And the “ΔS (entropy)” value (MpPA14 [3])?
Answer: -34.9 cal/ mol/K

Question: And the “binding stoichiometry (N value)” value (MpPA14 [3])?
Answer: 1 ± 0.0116

Question: What about the Kd (MpPA14 [3]) of the same compound?
Answer: 170 µM and ~150 µM

Question: And the “relative binding to VcPA14 (in words)” value (VcPA14)?
Answer: more strongly than glucose

Question: How did the Kd (MpPA14 [1]) turn out when `C[C@H](O)[C@@H](O)[C@@H](O)[C@H](O)C=O` [L-Fucose, L-fucose] was run?
Answer: 650 µM

Question: And the “ΔH (enthalpy)” value (MpPA14 [3])?
Answer: -11,800 ± 191.8 cal/mol

Question: And the “ΔS (entropy)” value (MpPA14 [3])?
Answer: -21.4 cal/ mol/K

Question: And the “binding stoichiometry (N value)” value (MpPA14 [3])?
Answer: 1.01 ± 0.0131

Question: What about the Kd (MpPA14 [3]) of the same compound?
Answer: 147 µM and ~150 µM

Question: And the “fluorescent signal displaced (competitive effect)” value ([2]; 0.1 mM sugar, 0.2 mg/ml FITC-MpPA14)?
Answer: ~40%

Question: And the “effect on diatoms precoated with FITC-labeled MpPA14 (in words)” value ([2]; 0.5 mM sugar added after 1.5 h incubation of lectin with diatoms)?
Answer: resulted in the dissociation of the lectin from the cells

Question: What about the fluorescent signal displaced ([2]; 0.5 mM sugar, 0.2 mg/ml FITC-MpPA14) of the same compound?
Answer: 95%

Question: And the “blocking of FITC-VcPA14 binding to C. neogracile (in words)” value [4]?
Answer: largely blocked

Question: Which Kd (MpPA14 [1]) does the source give for `OC[C@H]1OC(O)[C@H](O)[C@@H](O)[C@@H]1O` (stereo partly drawn) [Glucose] here?
Answer: 1360 µM and 1400 µM

Question: And the “ΔH (enthalpy)” value (MpPA14 [3])?
Answer: -10,880 ± 42.71 cal/mol

Question: What about the “ΔS (entropy)” value (MpPA14 [3]) of the same compound?
Answer: -20.1 cal/ mol/K

Question: And the “binding stoichiometry (N value)” value (MpPA14 [3])?
Answer: 0.952 ± 0.0216

Question: And the Kd (MpPA14 [3])?
Answer: 350 µM
